Measurements published in patent EP4273147A1, “SUBSTITUTED SPIROLACTAMS, SALTS THEREOF AND THEIR USE AS HERBICIDALLY ACTIVE SUBSTANCES” (Bayer Aktiengesellschaft, priority 2022, dated 2023).

Legend:
SETVI = test: Herbicidal pre-emergence action (Table A5); type: in vivo, Setaria viridis; settings: visual grading after ca. 3 weeks
Source text: (§1) Seeds of mono- and dicotyledonous weed plants were sown in plastic pots (double sowings with one species of mono- and one species of dicotyledonous weed plants per pot), in sandy loam, and covered with soil.

LOLRI = test: Herbicidal pre-emergence action (Table A3); type: in vivo, Lolium rigidum; settings: visual grading after ca. 3 weeks
Source text: as §1

POAAN [1] = test: Herbicidal pre-emergence action (Table A7); type: in vivo, Poa annua; settings: visual grading after ca. 3 weeks; for pest or weed control at 1280 g/ha: Poa annua, pre-emergence, 504 h, read-out: pre-emergence activity against POAAN
Source text: as §1

STEME = test: Herbicidal pre-emergence action (Table A6); type: in vivo, Stellaria media; settings: visual grading after ca. 3 weeks
Source text: as §1

DIGSA = test: Herbicidal pre-emergence action (Table A12); type: in vivo, Digitaria sanguinalis; settings: visual grading after ca. 3 weeks
Source text: as §1

ECHCG [2] = test: Herbicidal pre-emergence action (Table A2); type: in vivo, Echinochloa crus-galli; settings: visual grading after ca. 3 weeks
Source text: as §1

ECHCG [3] = test: Herbicidal post-emergence action (Table B3); type: in vivo, Echinochloa crus-galli; settings: application rate 1280 g/ha; rated visually after about 3 weeks
Method: (§2) Seeds of mono- and dicotyledonous weed plants were placed in plastic pots in sandy loam soil (doubly sown with in each case one species of mono- or dicotyledonous weed plants per pot), covered with soil and cultivated in a greenhouse under controlled growth conditions. 2 to 3 weeks after sowing, the test plants were treated at the one-leaf stage. […] After the test plants had been kept in the greenhouse under optimum growth conditions for about 3 weeks, the activity of the preparations was rated visually in comparison to untreated controls. For example, 100% activity = the plants have died, 0% activity = like control plants.

POAAN [4] = test: Herbicidal post-emergence action (Table B7); type: in vivo, Poa annua
Method: as §2

MATIN = test: Herbicidal pre-emergence action (Table A4); type: in vivo, Matricaria inodora; settings: visual grading after ca. 3 weeks
Source text: as §1

KCHSC = test: Herbicidal pre-emergence action (Table A10); type: in vivo, Kochia scoparia; settings: visual grading after ca. 3 weeks
Source text: as §1

SMILES | pre-emergence activity against SETVI (SETVI; application rate 1280 g/ha) | pre-emergence activity against POAAN (POAAN [1]; application rate 320 g/ha) | pre-emergence activity against STEME (STEME; application rate 1280 g/ha) | pre-emergence activity against ECHCG (ECHCG [2]; application rate 1280 g/ha) | pre-emergence activity against POAAN (POAAN [1]; application rate 1280 g/ha) | other results
Cc1ccccc1CN1CCCC2(CCN(Cc3c(F)cccc3F)C2=O)C1=O (racemic) [I-077] | 100% | 100% | 90% |  |  | pre-emergence activity against LOLRI (LOLRI; application rate 320 g/ha): 100%; pre-emergence activity against DIGSA (DIGSA; application rate 320 g/ha): 90%
O=C1N(Cc2c(F)c(F)c(F)c(F)c2F)CCCC12CCCN(Cc1c(F)c(F)c(F)c(F)c1F)C2=O (racemic) [I-050] | 100% |  | 100% | 100% | 100% | post-emergence activity against ECHCG (ECHCG [3]): 100%
O=C1N(Cc2ccccc2Br)CCCC12CCCN(Cc1ccccc1Br)C2=O (racemic) [I-064] | 90% |  |  | 90% | 100% | post-emergence activity against POAAN (POAAN [4]; application rate 1280 g/ha): 100%
Cc1cc(CN2CCCC3(CCCN(Cc4cc(C)no4)C3=O)C2=O)on1 (racemic) [I-195, 2,8-bis[(3-methyl-1,2-oxazol-5-yl)methyl]-2,8-diazaspiro[5.5]undecane-1,7-dione] |  |  |  |  |  | pest or weed control at 1280 g/ha (POAAN [1]; application rate 1280 g/ha): 100%
O=C1N(Cc2ccsc2)CCCC12CCCN(Cc1ccccc1Cl)C2=O (racemic) [I-099] | 100% |  |  | 100% |  | pre-emergence activity against LOLRI (LOLRI; application rate 1280 g/ha): 100%
N#Cc1ccccc1CN1CCCC2(CCCN(Cc3ccccc3C#N)C2=O)C1=O (racemic) [I-094] | 90% |  |  |  | 100% | 
O=C1N(Cc2ccccc2Cl)CCC12CCCN(Cc1cccc(F)c1F)C2=O (racemic) [I-049] |  | 100% | 90% | 100% |  | pre-emergence activity against SETVI (SETVI; application rate 320 g/ha): 100%; pre-emergence activity against LOLRI (LOLRI; application rate 320 g/ha): 90%; post-emergence activity against ECHCG (ECHCG [3]): 90%; pre-emergence activity against DIGSA (DIGSA; application rate 320 g/ha): 90%
O=C1N(Cc2ccsc2)CCCC12CCCN(Cc1ccccc1F)C2=O (racemic) [I-104] |  | 100% |  |  |  | pre-emergence activity against ECHCG (ECHCG [2]; application rate 320 g/ha): 90%; pre-emergence activity against SETVI (SETVI; application rate 320 g/ha): 90%; pre-emergence activity against MATIN (MATIN; application rate 320 g/ha): 90%
CCc1cc(CN2CCCC3(CCCN(Cc4cc(CC)no4)C3=O)C2=O)on1 (racemic) [I-100] |  |  |  | 100% |  | pre-emergence activity against LOLRI (LOLRI; application rate 1280 g/ha): 100%
O=C1N(Cc2cscc2Br)CCCC12CCCN(Cc1cscc1Br)C2=O (racemic) [I-186, 2,8-bis[(4-bromothiophen-3-yl)methyl]-2,8-diazaspiro[5.5]undecane-1,7-dione] |  |  |  |  |  | pre-emergence activity against KCHSC (KCHSC; application rate 1280 g/ha): 90%; pre-emergence activity against DIGSA (DIGSA; application rate 1280 g/ha): 90%
Cc1ccccc1CN1CCC2(CCCN(Cc3cccc(F)c3F)C2=O)C1=O (racemic) [I-080] | 100% | 100% | 90% | 100% |  | pre-emergence activity against LOLRI (LOLRI; application rate 1280 g/ha): 90%; pre-emergence activity against KCHSC (KCHSC; application rate 1280 g/ha): 100%; pre-emergence activity against DIGSA (DIGSA; application rate 1280 g/ha): 100%
Cc1ccccc1CN1CCCC2(CCN(Cc3cccc(F)c3F)C2=O)C1=O (racemic) [I-081] | 100% | 100% | 90% |  |  | pre-emergence activity against LOLRI (LOLRI; application rate 1280 g/ha): 90%; pre-emergence activity against MATIN (MATIN; application rate 1280 g/ha): 90%; pre-emergence activity against DIGSA (DIGSA; application rate 320 g/ha): 90%
COc1ccccc1CN1CCCC2(CCCN(c3ccccc3)C2=O)C1=O (racemic) [I-102] | 90% |  | 90% | 90% | 90% | 
O=C1N(Cc2cnc(Br)s2)CCCC12CCCN(Cc1cnc(Br)s1)C2=O (single isomer, unassigned; (-)) [I-206, (-)-2,8-bis[(2-bromo-1,3-thiazol-5-yl)methyl]-2,8-diazaspiro[5.5]undecane-1,7-dione] | 100% | 100% | 90% | 100% |  | pre-emergence activity against LOLRI (LOLRI; application rate 1280 g/ha): 90%; pre-emergence activity against DIGSA (DIGSA; application rate 1280 g/ha): 90%
Cc1ccccc1CN1CCCC2(CCCN(Cc3cccs3)C2=O)C1=O (racemic) [I-043] | 100% | 100% | 90% |  |  | pre-emergence activity against ECHCG (ECHCG [2]; application rate 320 g/ha): 100%; post-emergence activity against ECHCG (ECHCG [3]): 90%; post-emergence activity against POAAN (POAAN [4]; application rate 320 g/ha): 90%
O=C1N(Cc2c(F)cccc2F)CCCC12CCCN(CC1CCCCC1)C2=O (racemic) [I-034] |  | 100% | 100% | 90% |  | pre-emergence activity against SETVI (SETVI; application rate 320 g/ha): 90%; pre-emergence activity against LOLRI (LOLRI; application rate 1280 g/ha): 100%; post-emergence activity against POAAN (POAAN [4]; application rate 1280 g/ha): 90%; pre-emergence activity against DIGSA (DIGSA; application rate 1280 g/ha): 100%
O=C1N(Cc2ccccc2C(F)F)CCCC12CCCN(Cc1ccccc1C(F)F)C2=O (racemic) [I-067] | 100% | 100% |  |  |  | 
O=C1N(Cc2cc(Cl)cnc2Cl)CCCC12CCCN(Cc1cc(Cl)cnc1Cl)C2=O (racemic) [I-117] | 100% |  |  |  | 100% | 
O=C1N(Cc2c(F)ccc(F)c2Cl)CCCC12CCCN(Cc1c(F)ccc(F)c1Cl)C2=O (racemic) [I-078] |  |  |  |  | 100% | pre-emergence activity against STEME (STEME; application rate 320 g/ha): 90%
O=C1N(Cc2c(F)cccc2C(F)(F)F)CCCC12CCCN(Cc1c(F)cccc1C(F)(F)F)C2=O (racemic) [I-041] |  |  |  |  | 90% | pre-emergence activity against STEME (STEME; application rate 320 g/ha): 100%
O=C1N(Cc2ccc(F)cc2Cl)CCCC12CCCN(Cc1ccc(F)cc1Cl)C2=O (racemic) [I-070] |  |  | 90% |  | 100% | 
O=C1N(Cc2cnc(Br)s2)CCCC12CCCN(Cc1cnc(Br)s1)C2=O (racemic) [I-204, 2,8-bis[(2-bromo-1,3-thiazol-5-yl)methyl]-2,8-diazaspiro[5.5]undecane-1,7-dione] |  |  |  | 100% |  | pest or weed control at 1280 g/ha (LOLRI; Lolium rigidum, pre-emergence, 504 h, application rate 1280 g/ha, read-out: pre-emergence activity against LOLRI): 90%; pest or weed control at 1280 g/ha (POAAN [1]; application rate 1280 g/ha): 100%
Cc1ccccc1CN1CCCC2(CCN(Cc3ccccc3F)C2=O)C1=O (racemic) [I-086] | 90% |  |  | 100% | 100% | pre-emergence activity against DIGSA (DIGSA; application rate 1280 g/ha): 100%
O=C1N(Cc2ccsc2Br)CCCC12CCCN(Cc1ccsc1Br)C2=O (racemic) [I-216, 2,8-bis[(2-bromothien-3-yl)methyl]-2,8-diazaspiro[5.5]undecane-1,7-dione] |  |  |  |  |  | pest or weed control at 1280 g/ha (POAAN [1]; application rate 1280 g/ha): 90%
Cc1ccccc1CN1CCC2(CCCN(Cc3ccccc3F)C2=O)C1=O (racemic) [I-088] | 90% | 100% | 90% |  |  | pre-emergence activity against LOLRI (LOLRI; application rate 1280 g/ha): 100%; pre-emergence activity against KCHSC (KCHSC; application rate 320 g/ha): 90%; pre-emergence activity against DIGSA (DIGSA; application rate 320 g/ha): 90%
